Experimental data reported in patent publication EP0285287A2, “3-Benzazepine compounds for use in treating gastrointestinal motility disorders” (SMITHKLINE BECKMAN CORPORATION, priority 1987, dated 1988).
Read-outs that look alike come from different tables or passages of the source.

Test system: lower esophageal sphincter (LES)
Assay: Determination of LES pressure in the anesthetized dog
Type: in vivo, dogs
Settings: Canis lupus familiaris, mean ED20 = dose which increases LES pressure 20 mm Hg (N>=3)
Protocol: Methods for Determination of LES Pressure in the Anesthetized Dog
Mongrel or beagle dogs, male and female, are anesthetized using sodium pentobarbital (35.0 mg/kg., i.v.). Sodium pentobarbital is then continuously infused (approximately 6.0 mg/kg/hr) to maintain deep anesthesia. Blood pressure is monitored via a catheter surgically implanted into the femoral artery and attached to a Gould-Statham P23ID transducer. A catheter is also implanted into the femoral vein to administer test drugs. Respiration is maintained by an endotracheal tube attached to a respirator. A continuously perfused manometric catheter system including a Dent sleeve to measure sphincter pressure (Dent, Gastroenterology 71:263-267, 1976) is inserted into the esophagus and positioned so that intraluminal pressure is recorded from the body of the esophagus, the lower esophageal sphincter (LES) and the fundus of the stomach. The Dent sleeve catheter is perfused at a rate of 0.5 ml of water per minute for each lumen of the catheter by using an Arndorfer Hydraulic Capillary Infusion System. A cannula is implanted into the gastric antrum to allow drainage of the perfusate solution and prevent intestinal distension. Continuous tracings of esophageal, LES and fundus pressure are monitored on a Grass Polygraph (Model 7D). Correct positioning of the Dent sleeve is verified by noting a high pressure zone at the LES and by administration of an intravenous dose of 5-HT (usually 10-15 mcg/kg) which contracts the LES while having little or no recordable effect on either the body of the esophagus or the fundus. After verification of placement of the sleeve, the animal is allowed to stabilize for approximately 30 minutes.
Compounds are administered intravenously or intraduodenally. In most cases, succeeding doses of the same or different compounds are given only after the LES pressure has returned to approximate pre-dosing baseline values. In all cases, the magnitude of change in LES pressure is determined from the baseline pressure immediately prior to each treatment to the maximum pressure during treatment. Since the compounds used usually produce an immediate effect on LES pressure, no pretreatment time prior to measurement is necessary during this testing.
Direct assay techniques are used to estimate an Effective Dose 20 (ED₂₀) for the test compound in individual animals. The mean ED₂₀ and 95% confidence limits are determined using the individual ED₂₀ values from a group of animals (N= ≧3) that received the same treatment. The ED₂₀ is the dose which increases LES pressure 20 mm Hg.

[1] = intraduodenal, read-out: ED20 in mcg/kg i.d.
[2] = intravenous, read-out: ED20 in mcg/kg i.v.

CN1CCc2ccc(O)c(Sc3ccccc3)c2CC1 [Compound 1, 7-hydroxy-3-methyl-6-phenylthio-2,3 4,5-tetrahydro-1H-3-benzazepine]
ED (20 mm Hg) [1]: 263 µg/kg | ED (20 mm Hg) [2]: 63 µg/kg

CN1CCc2cc(O)c(Sc3ccccc3)cc2CC1 [Compound 2, 8-hydroxy-3-methyl-7-phenylthio-2,3 4,5-tetrahydro-1H-3-benzazepine]
ED (20 mm Hg) [1]: ~1000 µg/kg | ED (20 mm Hg) [2]: 14 µg/kg

CSc1ccc2c(c1)CCN(C)CC2 [Compound 3, 3-methyl-7-methylthio-2,3,4,5-tetra-hydro-1H-3-benzazepine]
ED (20 mm Hg) [1]: 236 µg/kg | ED (20 mm Hg) [2]: 273 µg/kg

Oc1ccc2c(c1)CCNCC2 [Compound 4, 7-hydroxy-2,3,4,5-tetrahydro-1H-3-benzazepine]
ED (20 mm Hg) [2]: 348 µg/kg

CN1CCc2cc(Sc3ccccc3)c([N+](=O)[O-])cc2CC1 [Compound 5, 3-methyl-7-nitro-8-phenylthio-2,3,4,5-tetrahydro-1H-3-benzazepine]
ED (20 mm Hg) [2]: 1200 µg/kg
